{"source": "patent US8906955B2", "about": "“Use of adrenergic beta-3-receptor agonists in anti-aging” (priority 2012, dated 2014)", "key": {"mTOR/Rictor complex": {"system": "mTOR/Rictor complex", "assay": "Western blot of mTOR/Rictor complex", "type": "cell-based", "details": "rat cardiomyocyte, 10^−7 M, 24 h, compared to control shRNA", "experimental": "Activation of the β3 receptor could increase mTOR/Rictor complex in […]. shRNA of β3 adrenergic receptor, control shRNA, BRL37344 and SR59230A was used to treat rat cardiomyocyte each at 10^−7 M. After 24 h, total protein was extracted and subjected to western blot to determine the expression amount of mTOR and Rictor proteins."}, "SIRT1 [1]": {"system": "SIRT1", "assay": "Western blot of SIRT1 in heart tissue of myocardial infarction rats", "type": "in vivo", "details": "heart failure rat, 1 mg/kg/day intraperitoneally, 4 weeks", "experimental": "(§1) In rat myocardial infarction models, activation of the β-3 receptor could increase level of SIRT1 in cardiomyocyte, inhibit expression of p53, improve the cardiac function and achieve anti-apoptosis effect. The myocardial infarction model was created by ligation of anterior descending branch of rat left coronary artery. BRL37344 was intraperitoneally injected at 1 mg/kg/day, and heart B-ultrasonography was performed after 4 weeks. Heart tissue was determined for apoptosis (tunel method) and expression levels of SIRT1 and p53 (western blot). The ratio of left ventricular weight to body weight (LVW/BW) is determined. It can be seen from the results shown in FIGS. 3 to 5, that BRL37344 decreases p53 expression, cardiac cell apoptosis, and value of LVW/BW of heart failure rat, increases SIRT1 expression, alleviate cardiac hypertrophy and improve cardiac function."}, "[2]": {"system": "adipose-derived stem cells of rats", "assay": "β-Galactosidase staining of adipose-derived stem cells", "type": "cell-based, rat", "details": "10^−7 M, 24 h, compared with SR59230A", "experimental": "Blockage of the β-3 receptor could increase level of β-galactosidase in adipose-derived stem cells and promote stem cell aging. BRL37344 and SR59230A were used to treat adipose-derived stem cells of rats each at 10^−7 M. After 24 h, cells were fixed using paraformaldehyde, and stained and photographed according to the specification of β-Galactosidase Staining Kit. BRL37344 decreases the level of β-galactosidase in adipose-derived stem cells compared with SR59230A, indicating agonisting of adrenergic β3 receptors of adipose-derived stem cells achieves anti-aging effect."}, "cardiomyocyte": {"system": "cardiomyocyte", "assay": "Lipofuscin in cardiomyocyte under confocal microscope", "type": "cell-based, rat", "details": "10^−7 M, 10 days", "description": "Beta-3 receptor reduced amount of lipofuscin in cardiomyocyte. BRL37344 and SR59230A were used to treat cardiomyocyte each at 10^−7 M. After 10 days, cells were observed under confocal microscope for lipofuscin."}, "mTOR/α-Tubulin": {"system": "mTOR/α-Tubulin", "assay": "mTOR/α-Tubulin double staining in cardiac fibroblast", "type": "cell-based, rat", "details": "cardiac fibroblast of rats, 10^−7 M, confocal microscope", "description": "(§2) Beta-3 receptor promoted binding of mTORC2 to α-Tubulin in spindle apparatus. BRL37344 was used to treat cardiac fibroblast of rats at 10^−7 M. The cells were undergone mTOR/α-Tubulin immunohistochemical double staining and Rictor/α-Tubulin immunofluorescence double staining, and observed under confocal microscope."}, "MCF7 cells [3]": {"system": "MCF7 cells", "assay": "JC-1 flow cytometry of mitochondrial membrane potential", "type": "cell-based", "details": "10^−7 M", "experimental": "(§3) Activation of the β3 receptor could increase mitochondrial content of MCF7 cells. BRL37344 and SR59230A were used to treat MCF7 cells and naked tumor-bearing rats each at 10^−7 M. The amount of mitochondrion was determined by MitoTracker probes. Mitochondrial membrane potential was determinded by JC1. The ROS content of the cells was determined by fluorescence probe H2DCFDA. ATP level was determined by ATP kit. MDC staining was determined by flowcytometer. GFP-LC3 eukaryotic expression vectors were used for transfection. […] BRL37344 protected mitochondrial membrane potential (FIG. 10), reduced intracellular ROS content (FIG. 11), and increased intracellular ATP level (FIG. 12)."}, "SIRT3": {"system": "SIRT3", "assay": "Quantitative PCR of SIRT3 in organs of aging rats", "type": "in vivo", "details": "12-month male SD rats, 100 nmol per rat intraperitoneally, qd, 2 weeks, vs control group", "description": "(§4) Activation of the β3 receptor could increase the expression of SIRT1, SIRT3 and SIRT4 in heart, liver, brain, kidney and aorta of aging rats. Twenty 12-month male SD rats were randomly divided into 2 groups. The rats were intraperitoneally injected with BRL37344 at 100 nmol for each rat, qd, 2 weeks. The rats in control group were administrated with solvents of same volume. The rats were sacrificed to obtain heart, liver, brain, kidney and aorta, followed by total RNA extraction. The RNA was then reversely transcribed, followed by quantitative PCR to detect gene expression of SIRT1, SIRT3 and SIRT4. Compared to the control group, BRL37344 increases the expression of SIRT1, SIRT3 and SIRT4 in heart, liver, brain, kidney and aorta."}, "p53 [4]": {"system": "p53", "assay": "Western blot of p53 in heart tissue of myocardial infarction rats", "type": "in vivo", "details": "heart failure rat, 1 mg/kg/day intraperitoneally, 4 weeks", "experimental": "as §1"}, "[5]": {"system": "rat myocardial infarction models", "assay": "Rat myocardial infarction (heart failure) model: B-ultrasonography, tunel apoptosis, LVW/BW", "type": "in vivo", "details": "1 mg/kg/day intraperitoneally, 4 weeks", "experimental": "as §1"}, "Rictor/α-Tubulin": {"system": "Rictor/α-Tubulin", "assay": "Rictor/α-Tubulin immunofluorescence double staining in cardiac fibroblast", "type": "cell-based, rat", "details": "cardiac fibroblast of rats, 10^−7 M, confocal microscope", "description": "as §2"}, "naked tumor-bearing rats": {"system": "naked tumor-bearing rats", "assay": "ATP content by ATP kit in tumor tissue of naked tumor-bearing rats", "type": "in vivo, rat", "details": "10^−7 M", "experimental": "as §3"}, "MCF7 cells [6]": {"system": "MCF7 cells", "assay": "H2DCFDA flow cytometry of reactive oxygen species", "type": "cell-based", "details": "10^−7 M, fluorescence probe H2DCFDA", "experimental": "as §3"}, "SIRT1 [7]": {"system": "SIRT1", "assay": "Quantitative PCR of SIRT1 in organs of aging rats", "type": "in vivo", "details": "12-month male SD rats, 100 nmol per rat intraperitoneally, qd, 2 weeks, vs control group", "description": "as §4"}, "SIRT4": {"system": "SIRT4", "assay": "Quantitative PCR of SIRT4 in organs of aging rats", "type": "in vivo", "details": "12-month male SD rats, 100 nmol per rat intraperitoneally, qd, 2 weeks, vs control group", "description": "as §4"}, "MCF7 cells [8]": {"system": "MCF7 cells", "assay": "MDC staining by flowcytometer", "type": "cell-based", "details": "10^−7 M", "experimental": "as §3"}, "p53 [9]": {"system": "p53", "assay": "Western blot of p53 in MCF-7 cells treated with SR59230A", "type": "cell-based", "details": "24 h, with increasing SR59230A concentration, western blot vs GAPDH", "experimental": "(§5) MCF-7 cells were treated with SR59230A at different concentrations. After 24 h, the cells were lysed to extract total protein. The protein concentration was determined by BCA method. 10 μg of the protein was used to perform 10% SDS PAGE, and then transferred to a PVDF membrane. The membrane was blocked for 1 h with TBST (10 mmol/L Tris HCl, pH 7.5, 150 mmol/L NaCl, 0.1% Tween 20) containing 4% fat-free milk, and incubated overnight with p53 antibody (1:1000) and SIRT1 antibody (1:1000) at 4° C. The membrane was further incubated with secondary antibodies for 1 h after washing, followed by ECL color development. The same procedure is repeated 3 times. The gray values of protein bands were obtained through Fluorchem 8900 software and the ratio of target band to reference band (GAPDH) was calculated. Results are shown in FIGS. 1 and 2, wherein the expression level of p53 is increased as the increase of SR59230A concentration, while SIRT1 is decreased."}, "SIRT1 [10]": {"system": "SIRT1", "assay": "Western blot of SIRT1 in MCF-7 cells treated with SR59230A", "type": "cell-based", "details": "24 h, with increasing SR59230A concentration, western blot vs GAPDH", "experimental": "as §5"}, "MCF7 cells [11]": {"system": "MCF7 cells", "assay": "MitoTracker/LC3B immunofluorescence double staining (mitochondrion content, mitophagy)", "type": "cell-based", "details": "10^−7 M", "experimental": "as §3"}, "MCF7 cells [12]": {"system": "MCF7 cells", "assay": "GFP-LC3 eukaryotic expression vector transfection", "type": "cell-based", "details": "10^−7 M, GFP-LC3 transfected cells", "experimental": "as §3"}}, "data": [{"smiles": "C[C@H](Cc1ccc(OCC(=O)O)cc1)NC[C@H](O)c1cccc(Cl)c1", "note": "[BRL37344]", "values": [{"measurement": "mTOR/Rictor complex", "setting": "mTOR/Rictor complex", "value": "increases"}, {"measurement": "SIRT1 expression in rat myocardia", "setting": "SIRT1 [1]", "value": "increases"}, {"measurement": "level of β-galactosidase in adipose-derived stem cells", "setting": "[2]", "value": "decreases"}, {"measurement": "lipofuscin in cardiomyocyte", "setting": "cardiomyocyte", "value": "significantly reduced"}, {"measurement": "binding of mTOR to α-Tubulin in spindle apparatus", "setting": "mTOR/α-Tubulin", "value": "promoted"}, {"measurement": "mitochondrial membrane potential", "setting": "MCF7 cells [3]", "value": "protected"}, {"measurement": "expression of SIRT3 in heart, liver, brain, kidney and aorta", "setting": "SIRT3", "value": "increases"}, {"measurement": "p53 expression in rat myocardia", "setting": "p53 [4]", "value": "decreases"}, {"measurement": "cardiac hypertrophy", "setting": "[5]", "value": "alleviate"}, {"measurement": "ratio of left ventricular weight to body weight (LVW/BW)", "setting": "[5]", "value": "decreases"}, {"measurement": "cardiac function", "setting": "[5]; heart B-ultrasonography, 1 mg/kg/day", "value": "improve"}, {"measurement": "cardiac cell apoptosis", "setting": "[5]; tunel method, 1 mg/kg/day", "value": "decreases"}, {"measurement": "binding of Rictor to α-Tubulin", "setting": "Rictor/α-Tubulin", "value": "promoted"}, {"measurement": "intracellular ATP level", "setting": "naked tumor-bearing rats", "value": "increased"}, {"measurement": "intracellular ROS content", "setting": "MCF7 cells [6]", "value": "reduced"}, {"measurement": "expression of SIRT1 in heart, liver, brain, kidney and aorta", "setting": "SIRT1 [7]", "value": "increases"}, {"measurement": "expression of SIRT4 in heart, liver, brain, kidney and aorta", "setting": "SIRT4", "value": "increases"}]}, {"smiles": "CCc1ccccc1OC[C@@H](O)CN[C@H]1CCCc2ccccc21", "note": "[SR59230A]", "values": [{"measurement": "MDC staining", "setting": "MCF7 cells [8]", "value": "increased"}, {"measurement": "mitochondrial membrane potential", "setting": "MCF7 cells [3]", "value": "damaged"}, {"measurement": "expression level of p53", "setting": "p53 [9]", "value": "increased"}, {"measurement": "expression level of SIRT1", "setting": "SIRT1 [10]", "value": "decreased"}, {"measurement": "content of mitochondrion", "setting": "MCF7 cells [11]; MitoTracker probes", "value": "decreases"}, {"measurement": "mitophagy", "setting": "MCF7 cells [11]; MitoTracker/LC3B double staining", "value": "enhance"}, {"measurement": "GFP-LC3 fluorescent spots", "setting": "MCF7 cells [12]", "value": "promoted to form many bright and green fluorescent spots"}]}]}
